Values joined by “and” are separate entries in the source; they are usually repeats but may differ in a detail not shown here. Equal entries are not always repeated.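 Protocol summary: plate cells (96-well), add compound at 5 concentrations, incubate 48 h, interpolate endpoints linearly. GI50: concentration for 50% inhibition of growth. TGI denotes the concentration required for complete inhibition of growth.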
Key:
Assay in all cases: NCI anticancer screen, dose series, 48 h
[1] = test system: EKVX NSCLC
[2] = test system: OVCAR-3 ovarian
[3] = test system: OVCAR-4 ovarian
[4] = test system: HL-60(TB) leukemia
[5] = test system: NCI-H226 lung
[6] = test system: SK-MEL-28 melanoma
[7] = test system: HOP-92 NSCLC
[8] = test system: M14 melanoma
[9] = test system: RXF 393 renal
[10] = test system: LOX IMVI melanoma
[11] = test system: HT29 colon
[12] = test system: IGROV1 ovarian
[13] = test system: OVCAR-5 ovarian
[14] = test system: SK-MEL-2 melanoma
[15] = test system: DU-145 prostate
[16] = test system: BT-549 breast
[17] = test system: UACC-62 melanoma
[18] = test system: SNB-19 CNS
[19] = test system: MDA-MB-435
[20] = test system: KM12 colon
[21] = test system: K-562 leukemia
[22] = test system: HS 578T breast
[23] = test system: SK-MEL-5 melanoma
[24] = test system: UACC-257 melanoma
[25] = test system: HCT-15 colon
[26] = test system: NCI-H460 lung
[27] = test system: SNB-75 CNS
[28] = test system: SF-268 CNS
[29] = test system: HCC-2998 colon
[30] = test system: MALME-3M melanoma
[31] = test system: NCI-H23 lung
[32] = test system: HCT-116 colon
[33] = test system: MDA-MB-231 breast
[34] = test system: OVCAR-8 ovarian
[35] = test system: SF-539 CNS
[36] = test system: RPMI-8226 leukemia
[37] = test system: CCRF-CEM leukemia
[38] = test system: HOP-62 NSCLC
[39] = test system: SW-620 colon
[40] = test system: U251 CNS
[41] = test system: PC-3 prostate
[42] = test system: SK-OV-3 ovarian
[43] = test system: MCF7 breast
[44] = test system: A498 renal
[45] = test system: CAKI-1 renal
[46] = test system: NCI/ADR-RES ovarian
[47] = test system: SR leukemia
[48] = test system: 786-0 renal
[49] = test system: NCI-H522 lung
[50] = test system: TK-10 renal
[51] = test system: MOLT-4 leukemia
[52] = test system: ACHN renal
[53] = test system: UO-31 renal
[54] = test system: SN12C renal
[55] = test system: SF-295 CNS
[56] = test system: T-47D breast
[57] = test system: A549 NSCLC
[58] = test system: COLO 205 colon

`O=C(Nc1ccc([N+](=O)[O-])cc1Cl)c1cc(Cl)ccc1O` was tested, and the GI50 [1] was 160 nM and 315 nM, the GI50 [2] was 141 nM and 283 nM and the TGI [2] was 2590 nM and 21500 nM. For the same molecule, the GI50 [3] was 156 nM and 259 nM, the TGI [3] was 13400 nM and > 100000 nM and the GI50 [4] was 115 nM. For the same molecule, the TGI [4] was 244 nM, the GI50 [5] was 155 nM and 334 nM and the GI50 [6] was 165 nM and 243 nM. The TGI [6] was 2030 nM and 2010 nM, the GI50 [7] was 19.4 nM and 59.1 nM and the TGI [7] was 100 nM and 261 nM. For the same molecule, the GI50 [8] was 160 nM and 318 nM, the TGI [8] was 645 nM and 1750 nM and the GI50 [9] was 135 nM and 268 nM. For the same molecule, the TGI [9] was 434 nM and 2710 nM, the GI50 [10] was 162 nM and 244 nM and the GI50 [11] was 1260 nM and 2160 nM. For the same molecule, the TGI [11] was 3680 nM and > 28800 nM, the GI50 [12] was 229 nM and 294 nM and the TGI [12] was 18700 nM and 8490 nM. The GI50 [13] was 249 nM and 373 nM, the TGI [13] was 50000 nM and > 95500 nM and the GI50 [14] was 111 nM and 167 nM. The TGI [14] was 268 nM and 443 nM, the GI50 [15] was 199 nM and 352 nM and the TGI [15] was 6220 nM and 35500 nM. For the same molecule, the GI50 [16] was 105 nM and 156 nM, the TGI [16] was 344 nM and 647 nM and the GI50 [17] was 77.3 nM and 67.8 nM. The TGI [17] was 568 nM and 392 nM, the GI50 [18] was 164 nM and 248 nM and the TGI [18] was 50000 nM and > 100000 nM. For the same molecule, the GI50 [19] was 115 nM and 244 nM, the TGI [19] was 381 nM and 1330 nM and the GI50 [20] was 169 nM and 303 nM. For the same molecule, the TGI [20] was 608 nM and 1200 nM, the GI50 [21] was 120 nM and 210 nM and the GI50 [22] was 133 nM and 207 nM. The GI50 [23] was 51.5 nM and 116 nM, the TGI [23] was 150 nM and 276 nM and the GI50 [24] was 84.6 nM and 185 nM. For the same molecule, the TGI [24] was 267 nM and 603 nM, the GI50 [25] was 154 nM and 260 nM and the TGI [25] was 3200 nM. The GI50 [26] was 134 nM and 213 nM, the TGI [26] was 5980 nM and the GI50 [27] was 155 nM and 211 nM. For the same molecule, the TGI [27] was 2490 nM and 864 nM, the GI50 [28] was 152 nM and 317 nM and the GI50 [29] was 215 nM and 452 nM. For the same molecule, the TGI [29] was 2580 nM and 3430 nM, the GI50 [30] was 101 nM and 194 nM and the TGI [30] was 338 nM and 744 nM. For the same molecule, the GI50 [31] was 104 nM and 190 nM, the TGI [31] was 390 nM and 737 nM and the GI50 [32] was 121 nM and 172 nM. The TGI [32] was 397 nM and 483 nM, the GI50 [33] was 110 nM and 162 nM and the TGI [33] was 461 nM and 593 nM. For the same molecule, the GI50 [34] was 147 nM and 330 nM, the TGI [34] was 605 nM and the GI50 [35] was 188 nM and 261 nM. The TGI [35] was 4300 nM and 12000 nM, the GI50 [36] was 50.2 nM and 176 nM and the TGI [36] was 287 nM. The GI50 [37] was 133 nM and 305 nM, the GI50 [38] was 149 nM and 262 nM and the TGI [38] was 469 nM. For the same molecule, the GI50 [39] was 163 nM and 333 nM, the TGI [39] was 15500 nM and 11900 nM and the GI50 [40] was 97.1 nM and 217 nM. The GI50 [41] was 203 nM and 295 nM, the TGI [41] was 5420 nM and > 38700 nM and the GI50 [42] was 150 nM and 234 nM. For the same molecule, the TGI [42] was 660 nM, the GI50 [43] was 151 nM and 286 nM and the GI50 [44] was 32.9 nM and 83.2 nM. The TGI [44] was 171 nM and 353 nM, the GI50 [45] was 108 nM and 227 nM and the TGI [45] was 4210 nM. The GI50 [46] was 137 nM and 231 nM, the TGI [46] was 536 nM and 1350 nM and the GI50 [47] was 145 nM and 134 nM. The TGI [47] was 761 nM, the GI50 [48] was 142 nM and 268 nM and the TGI [48] was 488 nM and 825 nM. The GI50 [49] was 76.4 nM and 171 nM, the GI50 [50] was 165 nM and 307 nM and the TGI [50] was 1670 nM and 984 nM. The GI50 [51] was 121 nM and 273 nM, the TGI [51] was 374 nM and 1030 nM and the GI50 [52] was 155 nM and 258 nM. The TGI [52] was 19400 nM, the GI50 [53] was 129 nM and 254 nM and the TGI [53] was 437 nM and 1010 nM. The GI50 [54] was 115 nM and 195 nM, the GI50 [55] was 112 nM and 207 nM and the TGI [55] was 308 nM and 609 nM. The GI50 [56] was 107 nM and 188 nM, the TGI [56] was 361 nM and 836 nM and the GI50 [57] was 163 nM and 327 nM. For the same molecule, the TGI [57] was 23400 nM and > 100000 nM, the GI50 [58] was 1340 nM and 1520 nM and the TGI [58] was 3260 nM and 3220 nM.

Molecule `COc1cc(/C=C/[N+](=O)[O-])cc(OC)c1` has a GI50 [1] of 4050 nM, a TGI [1] of 27100 nM and a GI50 [2] of 1560 nM. The TGI [2] was 3070 nM, the GI50 [3] was 4870 nM and the TGI [3] was 17300 nM. For the same molecule, the GI50 [4] was 2220 nM, the TGI [4] was 5680 nM and the GI50 [5] was 17300 nM. For the same molecule, the TGI [5] was 46100 nM, the GI50 [6] was 2750 nM and the TGI [6] was 7290 nM. The GI50 [7] was 4780 nM, the TGI [7] was 20500 nM and the GI50 [8] was 2000 nM. The TGI [8] was 4480 nM, the GI50 [9] was 1750 nM and the TGI [9] was 3270 nM. It also gave a GI50 [10] of 1420 nM, a TGI [10] of 2750 nM and a GI50 [11] of 3080 nM. The TGI [11] was 10400 nM, the GI50 [12] was 2830 nM and the TGI [12] was 8630 nM. It also gave a GI50 [13] of 3660 nM, a TGI [13] of 13400 nM and a GI50 [14] of 2100 nM. The TGI [14] was 4760 nM, the GI50 [15] was 1970 nM and the TGI [15] was 4030 nM. The GI50 [16] was 1850 nM, the TGI [16] was 3650 nM and the GI50 [17] was 2420 nM. The TGI [17] was 7340 nM, the GI50 [18] was 8490 nM and the TGI [18] was 22100 nM. The GI50 [19] was 2990 nM, the TGI [19] was 10300 nM and the GI50 [20] was 3080 nM. The TGI [20] was 10500 nM, the GI50 [21] was 1750 nM and the TGI [21] was 9090 nM. The GI50 [22] was 4110 nM, the TGI [22] was 23300 nM and the GI50 [23] was 1970 nM. It also gave a TGI [23] of 4030 nM, a GI50 [24] of 2480 nM and a TGI [24] of 7570 nM. For the same molecule, the GI50 [25] was 1990 nM, the TGI [25] was 6110 nM and the GI50 [26] was 3510 nM. The TGI [26] was 10500 nM, the GI50 [27] was 3820 nM and the TGI [27] was 16700 nM. The GI50 [28] was 3620 nM, the TGI [28] was 14900 nM and the GI50 [29] was 1980 nM. For the same molecule, the TGI [29] was 3590 nM, the GI50 [30] was 3290 nM and the TGI [30] was 10400 nM. It also gave a GI50 [31] of 1850 nM, a TGI [31] of 4370 nM and a GI50 [32] of 1840 nM. The TGI [32] was 3640 nM, the GI50 [33] was 2720 nM and the TGI [33] was 8480 nM. The GI50 [34] was 3720 nM, the TGI [34] was 13900 nM and the GI50 [35] was 2490 nM. It also gave a TGI [35] of 5560 nM, a GI50 [36] of 1850 nM and a TGI [36] of 4610 nM. For the same molecule, the GI50 [37] was 2020 nM, the TGI [37] was 6320 nM and the GI50 [38] was 2930 nM. It also gave a TGI [38] of 10400 nM, a GI50 [39] of 1680 nM and a TGI [39] of 3650 nM. It also gave a GI50 [40] of 2220 nM, a TGI [40] of 5480 nM and a GI50 [41] of 2940 nM. It also gave a TGI [41] of 8380 nM, a GI50 [42] of 11100 nM and a TGI [42] of 23100 nM. For the same molecule, the GI50 [43] was 1390 nM, the TGI [43] was 3610 nM and the GI50 [44] was 2960 nM. It also gave a TGI [44] of 9120 nM, a GI50 [46] of 3020 nM and a TGI [46] of 13600 nM. It also gave a GI50 [47] of 1140 nM, a TGI [47] of 5450 nM and a GI50 [48] of 1740 nM. The TGI [48] was 3310 nM, the GI50 [49] was 1390 nM and the TGI [49] was 3140 nM. The GI50 [51] was 2250 nM, the TGI [51] was 6330 nM and the GI50 [52] was 1760 nM. It also gave a TGI [52] of 3720 nM, a GI50 [53] of 1780 nM and a TGI [53] of 3400 nM. For the same molecule, the GI50 [54] was 3380 nM, the TGI [54] was 15900 nM and the GI50 [55] was 2540 nM. It also gave a TGI [55] of 7290 nM, a GI50 [56] of 2170 nM and a TGI [56] of 7030 nM. The GI50 [57] was 3940 nM, the TGI [57] was 16800 nM and the GI50 [58] was 1790 nM. The TGI [58] was 3630 nM.

Reference: PubChem BioAssay (NCI)
